Test results: BigSolDB 2.1

COc1ccc(Cl)cc1C(=O)NCCc1ccc(S(=O)(=O)NC(=O)NC2CCCCC2)cc1
solubility (mole fraction)
Conditions	288.15 K	293.15 K	298.15 K	303.15 K	308.15 K	313.15 K	318.15 K	323.15 K
in acetonitrile	8e-05	0.000106	0.000144	0.000184	0.000231	0.0003	0.00043	0.000571
in isopropanol	0.000106	0.000121	0.000168	0.000231	0.000309	0.000404	0.000577	0.000863
in methanol	0.000181	0.000229	0.000289	0.000365	0.000451	0.000614	0.000941	0.00131
in n-propanol	0.000155	0.000193	0.000237	0.000302	0.000428	0.000572	0.000751	0.00097
in water	9.02e-08	1.02e-07	1.26e-07	1.57e-07	2.18e-07	3.04e-07	4.35e-07	7.67e-07
